Key:
Assay type in all cases: cell-based, human
MDSC cultures [1] = assay: LPS-induced macrophage differentiation of MDSC cultures; conditions: 1 μg/ml LPS; 12-14-day-old M-CSF-treated cultures with 80-90% MDSCs
Excerpt: This transformation was verified by characterization of morphology, lipid staining, increased HLA-DR, HLA-DQ, IL-10 and TNF-α immunostaining (FIG. 3), and cytotoxicity (Table 1).

MDSC cultures [2] = assay: Transmission electron microscopy of treated MDSC cultures; conditions: treated MDSC cultures in high glucose
Experimental: Transmission electron microscopy. Untreated or treated MDSC cultures were incubated in high glucose in 8-well Permanox® Slides (Nunc, Naperville, Ill.). Freshly human isolated islets were fixed for 2 h with 2% glutaraldehyde in cacodylate buffer at room temperature and the further sample preparation was done as described in Zhu, X., et al., Proc. Natl. Acad. Sci. (USA), 99:10299-10304 (2002). Fifty randomly selected cells were photographed using the Philips CM-120 transmission electron microscope.

MDSC cultures [3] = assay: Insulin release from MDSC cultures (insulin ELISA); conditions: MDSC cultures treated 4-5 days
Experimental: Insulin release. MDSC cultures incubated in 24-well tissue culture plates (Costar, Cambridge, Mass.) at 70-80% confluence were treated for 4-5 days with LPS or CD40Ab. Insulin secretion was assessed as previously described in Schuit, F., et al., J. Biol. Chem. 272:18572-18579 (1997), using an insulin ELISA kit (Linco Research, MO). When required, the untreated or treated cultures were also pre-incubated for 30 min with […] diazoxide, 10 mM tolbudamide, or […] IBMX.

MDSC cultures [4] = assay: Pancreatic islet β-cell-like  differentiation of MDSC cultures, immunostaining for β-cell markers; conditions: high glucose, absence of serum
Experimental: Cells. MDSCs cultured in 8-well Lab-Tek chamber slides (Nunc, Naperville, Ill.)) were treated for 3-5 days with 1 mg/ml LPS (Sigma) or […] CD40Ab (R&D System, Minneapolis, Minn.)) in the presence of low (5 mM) or high (25 mM) glucose (Sigma). Human pancreatic islets were digested as described in Ricordi, C., et al., Diabetes 38 Suppl 1, 140-142 (1989) and purified on COBE 2991 (Mediatech, Herndon, Va.) using a continuous Ficoll gradient. Immunostaining. Tissue slides (Biochain, Hayward, Calif.) were immunostained after deparaffinization with AutoDewaxer (Phoenix Biotechnologies, Huntsville, Ala.). The secondary antibodies were peroxidase-, FITC-, or Texas Red® dye-conjugated affiniPure anti-mouse, donkey, goat or Guinea pig antibodies (Jackson ImmunoResearch Laboratories, West Grove, Pa.). […] Isotype-matched antibodies served as controls. Human macrophages served as positive controls. […] Immunostaining for the different antigens and insulin immuno-quantification was done as previously described (Zhao, Y., et al., Proc. Natl. Acad. Sci. USA, 100: 2426-2431 (2003). Non-specific esterase staining was performed using a-Naphthyl Acetate Esterase kit (Sigma).

insulin gene = assay: Nested RT-PCR for insulin in MDSC cultures; conditions: treated MDSC cultures; markedly increased in high glucose
Experimental: Nested RT-PCR. Nested RT-PCR was performed using the QIAGEN® OneStep RT-PCR kit (Qiagen, Valencia, Calif.), with the following: insulin forward-[…] (SEQ ID NO: 1) (PCR product size 324 bp), insulin forward nested-[…] (SEQ ID NO: 2) (PCR product size 266 bp), insulin reverse-[…] (SEQ ID NO: 3), glyceraldehyde phosphate dehydrogenase (GAPDH) forward-[…] (SEQ ID NO: 4) (PCR product size 541 bp), GAPDH forward nested-[…] (SEQ ID NO: 5) (PCR poduct size 282 bp), GAPDH reverse-[…] (SEQ ID NO: 6). Both PCR rounds were done using 40 cycles consisting of 30 seconds at 94° C., 1 minute at 58° C., and 1 minute at 72° C. First round PCR products were diluted 1:100 prior to the nested PCR. Final PCR products were electrophoresed through 1.7% agarose with ethidiumbromide and visualized by UV.

Question: lipopolysaccharide [LPS] was tested. Which “macrophage differentiation of MDSCs” value (MDSC cultures [1]) did it give?
Answer: transformed the MDSCs into standard macrophages

Question: And the “granules seen by transmission electron microscopy” value (MDSC cultures [2])?
Answer: many halo granules of different sizes

Question: And the “insulin release by ELISA” value (MDSC cultures [3])?
Answer: glucose-dependent insulin release

Question: And the “insulin level by quantitative immunostaining” value (MDSC cultures [4])?
Answer: about half the level of islet beta-cells

Question: And the insulin gene expression (insulin gene)?
Answer: express the insulin gene

Reference: patent US20050260158A1, “Human stem cell materials and methods” (priority 2003, published 2005)
